# Source: ChEMBL document CHEMBL2034954, “Synthesis and antimycobacterial activity of novel 1,3-dimethylisocyanurate derivatives” (Eur J Med Chem, 2012)
# Activity calls are given as the source filed them. No cut-off for these calls is given here.
# Legend:
# [1] = tested on: Mycobacterium tuberculosis; test: Bacteriostatic activity against Mycobacterium tuberculosis H37Rv at 0.1 ug/mL assessed as growth index after 7 days by radiometric growth assay (reference value: 210 growth index); assay type: functional
# [2] = tested on: Mycobacterium tuberculosis; test: Bacteriostatic activity against Mycobacterium tuberculosis H37Rv at 0.1 ug/mL assessed as growth index after 5 days by radiometric growth assay (reference value: 210 growth index); assay type: functional
# [3] = tested on: Mycobacterium tuberculosis; test: Bacteriostatic activity against Mycobacterium tuberculosis H37Rv at 0.05 ug/mL assessed as growth index after 3 days by radiometric growth assay (reference value: 210 growth index); assay type: functional
# Escherichia coli = test: Antibacterial activity against Escherichia coli F-50 up to 1 ug/mL after 5 days by broth dilution method; assay type: functional, organism-based
# [4] = tested on: Mycobacterium tuberculosis; test: Antitubercular activity against Mycobacterium tuberculosis H37Rv at 1 ug/mL by radiometric growth assay; assay type: functional, organism-based
# Staphylococcus aureus = test: Antibacterial activity against Staphylococcus aureus 209p up to 1 ug/mL after 5 days by broth dilution method; assay type: functional, organism-based
# Rattus norvegicus = test: Acute toxicity in rat assessed as mortality at 3000 mg/kg, po after 14 days; assay type: organism-based; set-up: dose 3000 mg/kg, route oral; details: in vivo, 336 h
# [5] = tested on: Mycobacterium tuberculosis; test: Bacteriostatic activity against Mycobacterium tuberculosis H37Rv at 0.1 ug/mL assessed as growth index after 3 days by radiometric growth assay (reference value: 210 growth index); assay type: functional
# [6] = tested on: Trichophyton mentagrophytes; test: Antifungal activity against Trichophyton mentagrophytes 1773 up to 1 ug/mL after 14 days by broth dilution method; assay type: functional, organism-based
# [7] = tested on: Mycobacterium tuberculosis; test: Bacteriostatic activity against Mycobacterium tuberculosis H37Rv at 0.1 ug/mL assessed as growth index after 4 days by radiometric growth assay (reference value: 210 growth index); assay type: functional
# [8] = tested on: Mycobacterium tuberculosis; test: Antitubercular activity against Mycobacterium tuberculosis H37Rv at 10 ug/mL by radiometric growth assay; assay type: functional, organism-based
# [9] = tested on: Mycobacterium tuberculosis; test: Bacteriostatic activity against Mycobacterium tuberculosis H37Rv at 0.05 ug/mL assessed as growth index after 4 days by radiometric growth assay (reference value: 210 growth index); assay type: functional
# [10] = tested on: Mycobacterium tuberculosis; test: Bacteriostatic activity against Mycobacterium tuberculosis H37Rv at 0.05 ug/mL assessed as growth index after 7 days by radiometric growth assay (reference value: 210 growth index); assay type: functional
# [11] = tested on: Mycobacterium tuberculosis; test: Bacteriostatic activity against Mycobacterium tuberculosis H37Rv at 0.1 ug/mL assessed as growth index after 10 days by radiometric growth assay (reference value: 210 growth index); assay type: functional
# [12] = tested on: Mycobacterium tuberculosis; test: Bacteriostatic activity against Mycobacterium tuberculosis H37Rv at 0.05 ug/mL assessed as growth index after 5 days by radiometric growth assay (reference value: 210 growth index); assay type: functional
# Bacillus cereus = test: Antibacterial activity against Bacillus cereus 8035 up to 1 ug/mL after 5 days by broth dilution method; assay type: functional, organism-based
# Mus musculus = test: Acute toxicity in white outbred mouse assessed as mortality at 3000 mg/kg, po after 14 days; assay type: organism-based; set-up: dose 3000 mg/kg, route oral; details: in vivo, 336 h
# Candida albicans = test: Antifungal activity against Candida albicans 855-653 up to 1 ug/mL after 14 days by broth dilution method; assay type: functional, organism-based
# [13] = tested on: Mycobacterium tuberculosis; test: Antitubercular activity against Mycobacterium tuberculosis H37Rv after […] by radiometric growth assay; assay type: functional
# Aspergillus niger = test: Antifungal activity against Aspergillus niger BKMF-1119 up to 1 ug/mL after 14 days by broth dilution method; assay type: functional, organism-based
structure (smiles),measurement,setting,value
Cn1c(=O)n(C)c(=O)n(CCCCC[S+]([O-])CC(=O)NN)c1=O (stereo not given),Growth_index,[1],2
same,Growth_index,[2],1
same,Growth_index,[3],15
same,Activity,Escherichia coli,inactive
same,Activity,[4],Active
same,Activity,Staphylococcus aureus,inactive
same,Activity,Rattus norvegicus,Non-toxic
same,Growth_index,[5],0
same,Activity,[6],inactive
same,Growth_index,[7],0
same,Activity,[8],Active
same,Growth_index,[9],27
same,Growth_index,[10],>90
same,Growth_index,[11],2
same,Growth_index,[12],32
same,Activity,Bacillus cereus,inactive
same,Activity,Mus musculus,Non-toxic
same,Activity,Candida albicans,inactive
same,MIC,[13],0.05 µg/mL
same,Activity,Aspergillus niger,inactive
